Assay results published in patent US9856507B2, “Method for screening food ingredients and food compositions” (JAPANESE FOUNDATION FOR CANCER RESEARCH, priority 2013, dated 2018).

What was measured:
liver cancer [1] = assay: Liver cancer development in DMBA-treated mice fed high-fat diets, antibiotic in drinking water; type: in vivo; conditions: dissected at 30th week; antibiotic from 13 weeks old; compared with control
Excerpt: An acetone solution containing 0.5% of the carcinogenic substance DMBA (7,12-dimethylbenz[a]anthracene) was applied once to the backs of wild-type (C57BL/6) neonatal mice. The neonatal mice were raised together with their mother mouse by feeding with normal diets (ND) or high-fat diet (HFD) until 4 weeks old. The high-fat diets used were D12492 (Rodent Diet with 60% kcal % Fat; Research Diets, Inc., USA). The neonatal mice were weaned at 4 weeks old and subsequently raised with normal diets or high-fat diet. At 30 weeks old, their livers and lungs were excised, and the presence or absence of cancer development was analyzed. The average body weight of the mice at the time of dissection was 33 g for the mice fed normal diets and 51 g for the mice fed high-fat diets. The mice fed high-fat diets had approximately 1.5 times the body weights of the mice fed normal diets.
DMBA was applied to wild-type neonatal mice, followed by high-fat diet feeding. From 13 weeks old, an antibiotic cocktail (4Abx, antibiotic cocktail administration group) or vancomycin (VCM, vancomycin administration group) mixed with drinking water was administered to the mice. At the 30th week after the start of the raising, their livers were excised, and liver cancer development was analyzed. […]
The mice of each group were dissected at the 30th week, and liver cancer development was analyzed (FIGS. 4C and 4D).

intestinal bacteria = assay: Level of gene encoding intestinal bacterial 16S rRNA after antibiotic administration; type: in vivo, mice; conditions: 17 weeks after antibiotic administration, 30 weeks after birth; high-fat diet, drinking water
Description: DMBA was applied to wild-type neonatal mice, followed by high-fat diet feeding. From 13 weeks old, an antibiotic cocktail (4Abx, antibiotic cocktail administration group) or vancomycin (VCM, vancomycin administration group) mixed with drinking water was administered to the mice. At the 30th week after the start of the raising, their livers were excised, and liver cancer development was analyzed. On the other hand, the raising of a control group was continued in the same way as the aforementioned raising up to the 13th week. The antibiotic cocktail contained ampicillin (1 g/l), neomycin (1 g/l), metronidazole (1 g/l), and vancomycin (500 mg/l). Also, in the case of administering vancomycin alone, 500 mg/l was administered.

gut microbiota = assay: Gut microbiota analysis by PCR of 16S rRNA gene from feces; type: in vivo, mice
Description: Next, alteration in gut microbiota caused by antibiotic administration conducted in Example 3 will be shown. In the experimental schedule shown in FIG. 4A, 3 groups were used: a group fed normal diets, a group fed high-fat diets, and a group fed high-fat diets and also given vancomycin. The gut microbiota was analyzed.
The gut microbiota was identified by PCR analysis (Non Patent Literatures 11 and 12). Specifically, DNA was extracted from the feces and purified. The gene encoding 16S rRNA in many types of bacteria was amplified by PCR using universal primers. The V1-V4 hypervariable regions were further amplified, followed by identification.

liver cancer [2] = assay: Liver cancer induction by oral deoxycholic acid in mice fed high-fat diets and given antibiotic cocktail; type: in vivo; conditions: 40 μg/g body weight orally three times a week; HFD + antibiotic cocktail; n=3
Description: From the 13th week after the start of the raising, the antibiotic cocktail was administered to mice fed high-fat diets, which were then further raised. To these mice, 40 μg/g body weight of deoxycholic acid (DCA) or only a vehicle as a control was orally administered three times a week (FIG. 6A). […] The mice given deoxycholic acid developed a large number of liver tumors (indicated by Δ in the diagram), whereas cancer development was rarely seen in the control mouse group given only the vehicle. […] The cancer was rarely developed in the control mouse group given only the vehicle, and even if the cancer was developed, its tumor size was small. On the other hand, the deoxycholic acid administration group had multiple cancer (25 or more tumors per individual), and also, its size was large.

Row | Compound | liver cancer development (tumor number and size) (liver cancer [1]) | amount of intestinal bacteria (level of gene encoding 16S rRNA) (intestinal bacteria) | Gram-negative microbiota, average (gut microbiota; HFD+VCM group, on average (FIG. 5)) [%] | cluster XI of the genus Clostridium (gut microbiota; high-fat diet plus vancomycin group, n=2) [%] | tumor size (liver) (liver cancer [2]) | tumors per individual (liver) (liver cancer [2])
1 | CN[C@H](CC(C)C)C(=O)N[C@H]1C(=O)N[C@@H](CC(N)=O)C(=O)N[C@H]2C(=O)N[C@H]3C(=O)N[C@H](C(=O)N[C@H](C(=O)O)c4cc(O)cc(O)c4-c4cc3ccc4O)[C@H](O)c3ccc(c(Cl)c3)Oc3cc2cc(c3O[C@@H]2O[C@H](CO)[C@@H](O)[C@H](O)[C@H]2O[C@H]2C[C@](C)(N)[C@H](O)[C@H](C)O2)Oc2ccc(cc2Cl)[C@H]1O [vancomycin] | developed no liver cancer or developed liver cancer with a smaller tumor number and a smaller size as compared with the control | decreased into a very small level | 99 | 0 | – | –
2 | C[C@H](CCC(=O)O)[C@H]1CC[C@H]2[C@@H]3CC[C@@H]4C[C@H](O)CC[C@]4(C)[C@H]3C[C@H](O)[C@]12C [deoxycholic acid] | – | – | – | – | large | ≥ 25
